Target: Aβ42 (Homo sapiens, UniProt P05067)
Test: Th-T (thioflavin-T) assay of Aβ42 aggregation
Type: biochemical

Aβ42, sequence (P05067 672-713): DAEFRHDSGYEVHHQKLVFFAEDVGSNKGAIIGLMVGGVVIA

C=C1CC[C@@H]2[C@](C)(CC[C@H]3O[C@H](C=C(C)C)C[C@@]23C)[C@@H]1Cc1c(OC)oc(CO)c(C)c1=O [Compound 20]
Fig. 7a Th-T reading, mean of three wells (column suffix _20, reading M101): 3.25 | Fig. 7a Th-T reading, mean of three wells (column suffix _20, reading M102): 3.237 | Fig. 7a Th-T reading, mean of three wells (column suffix _20, reading M103): 3.23 | Fig. 7a Th-T reading, mean of three wells (column suffix _20, reading M104): 3.246 | Fig. 7a Th-T reading, mean of three wells (column suffix _20, reading M105): 3.269 | Fig. 7a Th-T reading, mean of three wells (column suffix _20, reading M106): 3.248 | Th-T fluorescence, mean of three wells (Fig. 7a) (column suffix _50, measurement M19): 2.199 | Th-T fluorescence, mean of three wells (Fig. 7a) (column suffix _50, measurement M20): 2.217 | Th-T fluorescence, mean of three wells (Fig. 7a) (column suffix _50, measurement M21): 2.224 | Th-T fluorescence, mean of three wells (Fig. 7a) (column suffix _50, measurement M22): 2.216 | Th-T fluorescence, mean of three wells (Fig. 7a) (column suffix _50, measurement M23): 2.205 | Th-T fluorescence, mean of three wells (Fig. 7a) (column suffix _50, measurement M24): 2.2076 | Th-T fluorescence, mean of three wells (Fig. 7a) (column suffix _50, measurement M25): 2.21 | Th-T fluorescence, mean of three wells (Fig. 7a) (column suffix _50, measurement M26): 2.22 | Th-T fluorescence, mean of three wells (Fig. 7a) (column suffix _50, measurement M27): 2.2221 | Th-T fluorescence, mean of three wells (Fig. 7a) (column suffix _50, measurement M28): 2.198 | Th-T fluorescence, mean of three wells (Fig. 7a) (column suffix _50, measurement M29): 2.193 | Th-T assay signal, mean of three wells (Fig. 7a) (column suffix _50, reading M1): 0.1908 | Th-T assay signal, mean of three wells (Fig. 7a) (column suffix _50, reading M2): 0.1991 | Th-T assay signal, mean of three wells (Fig. 7a) (column suffix _50, reading M3): 0.2032 | Th-T assay signal, mean of three wells (Fig. 7a) (column suffix _50, reading M4): 0.2087 | Th-T assay signal, mean of three wells (Fig. 7a) (column suffix _50, reading M5): 0.2172 | Th-T assay signal, mean of three wells (Fig. 7a) (column suffix _50, reading M6): 0.2431 | Th-T assay signal, mean of three wells (Fig. 7a) (column suffix _50, reading M7): 0.2722 | Th-T assay signal, mean of three wells (Fig. 7a) (column suffix _50, reading M8): 0.3931 | Th-T assay signal, mean of three wells (Fig. 7a) (column suffix _50, reading M9): 0.6726 | Th-T assay signal, mean of three wells (Fig. 7a) (column suffix _50, reading M10): 1.1256 | Th-T assay signal, mean of three wells (Fig. 7a) (column suffix _50, reading M11): 1.605 | Th-T assay signal, mean of three wells (Fig. 7a) (column suffix _50, reading M12): 1.883 | Th-T assay signal, mean of three wells (Fig. 7a) (column suffix _50, reading M13): 2.0174 | Th-T assay signal, mean of three wells (Fig. 7a) (column suffix _50, reading M14): 2.101 | Th-T assay signal, mean of three wells (Fig. 7a) (column suffix _50, reading M15): 2.147 | Th-T assay signal, mean of three wells (Fig. 7a) (column suffix _50, reading M16): 2.173 | Th-T assay signal, mean of three wells (Fig. 7a) (column suffix _50, reading M17): 2.183 | Th-T assay signal, mean of three wells (Fig. 7a) (column suffix _50, reading M18): 2.192 | Fig. 7a Th-T reading, mean of three wells (column suffix _50, reading M85): 2.067 | Fig. 7a Th-T reading, mean of three wells (column suffix _50, reading M86): 2.077 | Fig. 7a Th-T reading, mean of three wells (column suffix _50, reading M87): 2.082 | Fig. 7a Th-T reading, mean of three wells (column suffix _50, reading M88): 2.092 | Fig. 7a Th-T reading, mean of three wells (column suffix _50, reading M89): 2.095 | Fig. 7a Th-T reading, mean of three wells (column suffix _50, reading M90): 2.096 | Fig. 7a Th-T reading, mean of three wells (column suffix _50, reading M91): 2.085 | Fig. 7a Th-T reading, mean of three wells (column suffix _50, reading M92): 2.089 | Fig. 7a Th-T reading, mean of three wells (column suffix _50, reading M93): 2.088 | Fig. 7a Th-T reading, mean of three wells (column suffix _50, reading M94): 2.094 | Fig. 7a Th-T reading, mean of three wells (column suffix _50, reading M95): 2.0955 | Fig. 7a Th-T reading, mean of three wells (column suffix _50, reading M96): 2.087 | Fig. 7a Th-T reading, mean of three wells (column suffix _50, reading M97): 2.084 | Fig. 7a Th-T reading, mean of three wells (column suffix _50, reading M98): 2.09 | Fig. 7a Th-T reading, mean of three wells (column suffix _50, reading M99): 2.099 | Fig. 7a Th-T reading, mean of three wells (column suffix _50, reading M100): 2.117 | Fig. 7a Th-T reading, mean of three wells (column suffix _50, reading M101): 2.093 | Fig. 7a Th-T reading, mean of three wells (column suffix _50, reading M102): 2.09 | Fig. 7a Th-T reading, mean of three wells (column suffix _50, reading M103): 2.088 | Fig. 7a Th-T reading, mean of three wells (column suffix _50, reading M104): 2.099 | Fig. 7a Th-T reading, mean of three wells (column suffix _50, reading M105): 2.107 | Fig. 7a Th-T reading, mean of three wells (column suffix _50, reading M106): 2.096 | Th-T fluorescence, mean of three wells (compound at 10, reading M41 of time course): 3.473 | Th-T fluorescence, mean of three wells (compound at 10, reading M42 of time course): 3.463 | Th-T fluorescence, mean of three wells (compound at 10, reading M43 of time course): 3.47 | Th-T fluorescence, mean of three wells (compound at 10, reading M44 of time course): 3.466 | Th-T fluorescence, mean of three wells (compound at 10, reading M45 of time course): 3.48 | Th-T fluorescence, mean of three wells (compound at 10, reading M46 of time course): 3.474 | Th-T fluorescence, mean of three wells (compound at 10, reading M47 of time course): 3.473 | Th-T fluorescence, mean of three wells (compound at 10, reading M48 of time course): 3.454 | Th-T fluorescence, mean of three wells (compound at 10, reading M49 of time course): 3.4597 | Th-T fluorescence, mean of three wells (compound at 10, reading M50 of time course): 3.479 | Th-T fluorescence, mean of three wells (compound at 10, reading M51 of time course): 3.451 | Th-T fluorescence, mean of three wells (compound at 10, reading M52 of time course): 3.467 | Th-T fluorescence, mean of three wells (compound at 10, reading M53 of time course): 3.449 | Th-T fluorescence, mean of three wells (compound at 10, reading M54 of time course): 3.468 | Th-T fluorescence, mean of three wells (compound at 10, reading M55 of time course): 3.479 | Th-T fluorescence, mean of three wells (compound at 10, reading M56 of time course): 3.4836 | Th-T fluorescence, mean of three wells (compound at 10, reading M57 of time course): 3.456 | Th-T fluorescence, mean of three wells (compound at 10, reading M58 of time course): 3.464 | Th-T fluorescence, mean of three wells (compound at 10, reading M59 of time course): 3.461 | Th-T fluorescence, mean of three wells (compound at 10, reading M60 of time course): 3.452 | Th-T fluorescence, mean of three wells (compound at 10, reading M61 of time course): 3.461 | Th-T fluorescence, mean of three wells (compound at 10, reading M62 of time course): 3.452 | Th-T fluorescence, mean of three wells (compound at 20, reading M41 of time course): 3.421 | Th-T fluorescence, mean of three wells (compound at 20, reading M42 of time course): 3.4495 | Th-T fluorescence, mean of three wells (compound at 20, reading M43 of time course): 3.4108 | Th-T fluorescence, mean of three wells (compound at 20, reading M44 of time course): 3.412 | Th-T fluorescence, mean of three wells (compound at 20, reading M45 of time course): 3.402 | Th-T fluorescence, mean of three wells (compound at 20, reading M46 of time course): 3.446 | Th-T fluorescence, mean of three wells (compound at 20, reading M47 of time course): 3.447 | Th-T fluorescence, mean of three wells (compound at 20, reading M48 of time course): 3.449 | Th-T fluorescence, mean of three wells (compound at 20, reading M49 of time course): 3.413 | Th-T fluorescence, mean of three wells (compound at 20, reading M50 of time course): 3.443 | Th-T fluorescence, mean of three wells (compound at 20, reading M51 of time course): 3.447 | Th-T fluorescence, mean of three wells (compound at 20, reading M52 of time course): 3.466 | Th-T fluorescence, mean of three wells (compound at 20, reading M53 of time course): 3.442 | Th-T fluorescence, mean of three wells (compound at 20, reading M54 of time course): 3.43 | Th-T fluorescence, mean of three wells (compound at 20, reading M55 of time course): 3.418 | Th-T fluorescence, mean of three wells (compound at 20, reading M56 of time course): 3.449 | Th-T fluorescence, mean of three wells (compound at 20, reading M57 of time course): 3.4659 | Th-T fluorescence, mean of three wells (compound at 20, reading M58 of time course): 3.449 | Th-T fluorescence, mean of three wells (compound at 20, reading M59 of time course): 3.427 | Th-T fluorescence, mean of three wells (compound at 20, reading M60 of time course): 3.432 | Th-T fluorescence, mean of three wells (compound at 20, reading M61 of time course): 3.433 | Th-T fluorescence, mean of three wells (compound at 20, reading M62 of time course): 3.454 | Th-T fluorescence, mean of three wells (compound at 50, reading M41 of time course): 2.136 | Th-T fluorescence, mean of three wells (compound at 50, reading M42 of time course): 2.134 | Th-T fluorescence, mean of three wells (compound at 50, reading M43 of time course): 2.091 | Th-T fluorescence, mean of three wells (compound at 50, reading M44 of time course): 2.118 | Th-T fluorescence, mean of three wells (compound at 50, reading M45 of time course): 2.11 | Th-T fluorescence, mean of three wells (compound at 50, reading M46 of time course): 2.107 | Th-T fluorescence, mean of three wells (compound at 50, reading M47 of time course): 2.113 | Th-T fluorescence, mean of three wells (compound at 50, reading M48 of time course): 2.125 | Th-T fluorescence, mean of three wells (compound at 50, reading M49 of time course): 2.092 | Th-T fluorescence, mean of three wells (compound at 50, reading M50 of time course): 2.091 | Th-T fluorescence, mean of three wells (compound at 50, reading M51 of time course): 2.089 | Th-T fluorescence, mean of three wells (compound at 50, reading M52 of time course): 2.103 | Th-T fluorescence, mean of three wells (compound at 50, reading M53 of time course): 2.105
